Test results published in patent US6737383B1, “Herbicidal oxadiazolidines” (priority 1999, dated 2004).

Columns and labels:
corn = experiment: Test B pre/postemergence corn; format: in vivo, Zea mays
Method in brief: (§1)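 Herbicidal effect was estimated by eye on a ten-point control scale after plants spent twelve to sixteen days in a greenhouse following soil or foliar treatment. Foliar sprays targeted plants at one to four leaves; all doses were formulated in a non-phytotoxic solvent with surfactant.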

crabgrass = experiment: Test B pre/postemergence crabgrass; format: in vivo, Digitaria sanguinalis
Method in brief: as §1

velvetleaf = experiment: Test B pre/postemergence velvetleaf; format: in vivo, Abutilon theophrasti
Method in brief: as §1

rice = experiment: Test B flood test rice; format: in vivo, Oryza sativa
Method in brief: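 Flood test on plants grown to the 2-leaf stage; treated plants kept in greenhouse twelve to sixteen days, then visually rated against controls on a 0 (no effect) to 10 (complete control) scale.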

[1] = Postemergence, Rate 31 g/ha, visual rating, scale 0 to 10 (0 no effect, 10 complete control)
[2] = Preemergence, Rate 31 g/ha, visual rating, scale 0 to 10 (0 no effect, 10 complete control)
[3] = Preemergence, Rate 62 g/ha, scale of 0 to 10 where 0 is no effect and 10 is complete control
[4] = Preemergence, Rate 250 g/ha, scale of 0 to 10 where 0 is no effect and 10 is complete control
[5] = Rate 62 g/ha, Postemergence, scale 0 to 10 (0 no effect, 10 complete control)
[6] = Rate 125 g/ha, Postemergence, scale of 0 to 10 where 0 is no effect and 10 is complete control
[7] = Rate 125 g/ha, Preemergence, scale of 0 to 10 where 0 is no effect and 10 is complete control
[8] = Rate 250 g/ha, Postemergence, scale of 0 to 10 where 0 is no effect and 10 is complete control
[9] = Rate 62 g/ha, headed Pre-emergence (flood test species), scale 0 to 10 (0 no effect, 10 complete control)
[10] = Rate 125 g/ha, Pre-emergence, flood test species, scale 0 to 10 where 0 is no effect and 10 is complete control
[11] = Rate 250 g/ha, Pre-emergence, flood-test species, scale 0 to 10, 0 is no effect, 10 is complete control
[12] = Preemergence, Rate 500 g/ha, scale of 0 to 10 where 0 is no effect and 10 is complete control
[13] = Rate 500 g/ha, Postemergence, scale 0 to 10, 0 no effect, 10 complete control
[14] = Rate 500 g/ha, Pre-emergence, flood test species, scale 0 to 10 (0 no effect, 10 complete control)

SMILES: CC(C)N(C(=O)n1oc(=O)n(C(C)C)c1=O)c1cnccn1 [Compound 296]
- Corn plant response rating (corn; [1]): 0
- Corn plant response rating (corn; [2]): 0
- Corn plant response rating (corn; [3]): 0
- Corn plant response rating (corn; [4]): 0
- Corn plant response rating (corn; [5]): 0
- Corn plant response rating (corn; [6]): 0
- Corn plant response rating (corn; [7]): 0
- Plant response rating, Corn (corn; [8]): 0
- Crabgrass plant response rating (crabgrass; [1]): 0
- Crabgrass plant response rating (crabgrass; [2]): 0
- Crabgrass plant response rating (crabgrass; [3]): 0
- Crabgrass plant response rating (crabgrass; [4]): 0
- Crabgrass plant response rating (crabgrass; [5]): 0
- Crabgrass plant response rating (crabgrass; [6]): 0
- Crabgrass plant response rating (crabgrass; [7]): 0
- Plant response rating, Crabgrass (crabgrass; [8]): 0
- Velvetleaf plant response rating (velvetleaf; [1]): 0
- Velvetleaf plant response rating (velvetleaf; [3]): 0
- Velvetleaf plant response rating (velvetleaf; [4]): 0
- Velvetleaf plant response rating (velvetleaf; [5]): 0
- Velvetleaf plant response rating (velvetleaf; [6]): 0
- Velvetleaf plant response rating (velvetleaf; [7]): 0
- Plant response rating, Velvetleaf (velvetleaf; [8]): 0
- Rice plant response rating (rice; Rate 31 g/ha, Pre-emergence section (flood test species), scale 0 to 10): 0
- Rice plant response rating (rice; [9]): 0
- Rice plant response rating (rice; [10]): 0
- Rice plant response rating (rice; [11]): 0

SMILES: Cc1ccccc1-n1c(=O)on(C(=O)N(c2ccc(OC(F)(F)F)cc2)C(C)C)c1=O [Compound 300]
- Corn plant response rating (corn; [3]): 0
- Corn plant response rating (0 to 10 scale) (corn; Preemergence, Rate 125 g/ha): 0
- Corn plant response rating (corn; [4]): 0
- Corn plant response rating (corn; [12]): 0
- Corn plant response rating (corn; [5]): 0
- Corn plant response rating (corn; [6]): 0
- Plant response rating, Corn (corn; [8]): 0
- Corn plant response rating (corn; [13]): 0
- Crabgrass plant response rating (crabgrass; [3]): 0
- Crabgrass plant response rating (0 to 10 scale) (crabgrass; Preemergence, Rate 125 g/ha): 2
- Crabgrass plant response rating (crabgrass; [4]): 4
- Crabgrass plant response rating (crabgrass; [12]): 7
- Crabgrass plant response rating (crabgrass; [5]): 0
- Crabgrass plant response rating (crabgrass; [6]): 0
- Plant response rating, Crabgrass (crabgrass; [8]): 0
- Velvetleaf plant response rating (velvetleaf; [3]): 0
- Velvetleaf plant response rating (0 to 10 scale) (velvetleaf; Preemergence, Rate 125 g/ha): 0
- Velvetleaf plant response rating (velvetleaf; [4]): 0
- Velvetleaf plant response rating (velvetleaf; [12]): 0
- Velvetleaf plant response rating (velvetleaf; [5]): 0
- Velvetleaf plant response rating (velvetleaf; [6]): 0
- Plant response rating, Velvetleaf (velvetleaf; [8]): 0
- Rice plant response rating (rice; [9]): 0
- Rice plant response rating (rice; [10]): 0
- Rice plant response rating (rice; [11]): 0
- Rice plant response rating (rice; [14]): 0

SMILES: C=CCn1c(=O)on(C(=O)N(CC)C2CCCCC2)c1=O [Compound 307]
- Corn plant response rating (corn; [3]): 0
- Corn plant response rating (0 to 10 scale) (corn; Preemergence, Rate 125 g/ha): 0
- Corn plant response rating (corn; [4]): 0
- Corn plant response rating (corn; [12]): 2
- Corn plant response rating (corn; [5]): 0
- Corn plant response rating (corn; [6]): 0
- Plant response rating, Corn (corn; [8]): 0
- Corn plant response rating (corn; [13]): 0
- Crabgrass plant response rating (crabgrass; [3]): 0
- Crabgrass plant response rating (0 to 10 scale) (crabgrass; Preemergence, Rate 125 g/ha): 0
- Crabgrass plant response rating (crabgrass; [4]): 0
- Crabgrass plant response rating (crabgrass; [12]): 2
- Crabgrass plant response rating (crabgrass; [5]): 0
- Crabgrass plant response rating (crabgrass; [6]): 0
- Plant response rating, Crabgrass (crabgrass; [8]): 0
- Velvetleaf plant response rating (velvetleaf; [3]): 0
- Velvetleaf plant response rating (0 to 10 scale) (velvetleaf; Preemergence, Rate 125 g/ha): 0
- Velvetleaf plant response rating (velvetleaf; [4]): 0
- Velvetleaf plant response rating (velvetleaf; [12]): 2
- Velvetleaf plant response rating (velvetleaf; [5]): 0
- Velvetleaf plant response rating (velvetleaf; [6]): 0
- Plant response rating, Velvetleaf (velvetleaf; [8]): 0
- Rice plant response rating (rice; Pre-emergence, Rate 1000 g/ha, scale 0 to 10 (0 no effect, 10 complete control)): 0
- Rice plant response rating (rice; [10]): 0
- Rice plant response rating (rice; [11]): 0
- Rice plant response rating (rice; [14]): 0
